Data on 25 compounds can be found in patent US6638973B2, “Taxane formulations” (FSU Research Foundation, Inc., priority 2000, dated 2003).

One assay has as its system HCT116 cells. The assay is described as follows: In vitro cytotoxicity measured by the cell colony formation assay. The conditions noted are these: HCT116 cells, 72 h incubation with drug, colonies counted after 7 days; ID50 = drug concentration producing 50% inhibition of colony formation; read-out: IN VITRO ID 50 (nm) HCT116. The assay is classed as cell-based. Put shortly: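 Colony-forming survival was scored 7 days after a 72 h, 37 °C compound exposure followed by washout into fresh medium.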
Consider `C/C=C/C(=O)N[C@@H](c1ccco1)[C@@H](O)C(=O)O[C@H]1C[C@@]2(O)[C@@H](OC(=O)c3ccccc3)C3[C@](C)(C(=O)[C@H](O)C(=C1C)C2(C)C)[C@@H](OC(=O)OCC)C[C@H]1OC[C@@]31OC(C)=O` (stereo partly shown) [Compound 4818], for which the IC50 was less than 1 nM.

Turning to `CCOC(=O)O[C@H]1C(=O)[C@@]2(C)C([C@H](OC(=O)c3ccccc3)[C@]3(O)C[C@H](OC(=O)[C@H](O)[C@@H](NC(=O)OCC(C)C)C4CC4)C(C)=C1C3(C)C)[C@]1(OC(C)=O)CO[C@@H]1C[C@@H]2O` (stereo partly shown) [Compound 4844], the IC50 is less than 1 nM.

As to `C/C=C/C(=O)N[C@@H](c1cccs1)[C@@H](O)C(=O)O[C@H]1C[C@@]2(O)[C@@H](OC(=O)c3ccccc3)C3[C@](C)(C(=O)[C@H](O)C(=C1C)C2(C)C)[C@@H](OC(=O)OCC)C[C@H]1OC[C@@]31OC(C)=O` (stereo partly shown) [Compound 4855], the IC50 was less than 1 nM.

For `C/C=C/C(=O)N[C@@H](c1ccoc1)[C@@H](O)C(=O)O[C@H]1C[C@@]2(O)[C@@H](OC(=O)c3ccccc3)C3[C@](C)(C(=O)[C@H](O)C(=C1C)C2(C)C)[C@@H](OC(=O)OC)C[C@H]1OC[C@@]31OC(C)=O` (stereo partly shown) [Compound 4877], the IC50 was less than 1 nM.

As for `C/C=C/C(=O)N[C@@H](c1ccoc1)[C@@H](O)C(=O)O[C@H]1C[C@@]2(O)[C@@H](OC(=O)c3ccccc3)C3[C@](C)(C(=O)[C@H](O)C(=C1C)C2(C)C)[C@@H](OC(=O)OCC)C[C@H]1OC[C@@]31OC(C)=O` (stereo partly shown) [Compound 4904], the IC50 is less than 10 nM.

In the case of `CCOC(=O)O[C@H]1C(=O)[C@@]2(C)C([C@H](OC(=O)c3ccccc3)[C@]3(O)C[C@H](OC(=O)[C@H](O)[C@@H](NC(=O)OCC(C)C)c4ccsc4)C(C)=C1C3(C)C)[C@]1(OC(C)=O)CO[C@@H]1C[C@@H]2O` (stereo partly shown) [Compound 4924], the IC50 is less than 10 nM.

With `CC=CC(=O)NC(c1ccoc1)C(O)C(=O)OC1CC2(O)C(OC(=O)c3ccccc3)C3C4(OC(C)=O)COC4CC(O)C3(C)C(=O)C(OC(=O)OCC)C(=C1C)C2(C)C` (stereo not shown) [Compound 4959], the IC50 is less than 1 nM.

Regarding `C/C=C/C(=O)N[C@@H](c1ccsc1)[C@@H](O)C(=O)O[C@H]1C[C@@]2(O)[C@@H](OC(=O)c3ccccc3)C3[C@](C)(C(=O)[C@H](O)C(=C1C)C2(C)C)[C@@H](OC(=O)OC)C[C@H]1OC[C@@]31OC(C)=O` (stereo partly shown) [Compound 4969], the IC50 was less than 1 nM.

Regarding `CCOC(=O)O[C@H]1C[C@H]2OC[C@@]2(OC(C)=O)C2[C@H](OC(=O)c3ccccc3)[C@]3(O)C[C@H](OC(=O)[C@H](O)[C@@H](NC(=O)OCC(C)C)c4ccsc4)C(C)=C([C@@H](O)C(=O)[C@@]21C)C3(C)C` (stereo partly shown) [Compound 4979], the IC50 is less than 10 nM.

For `C/C=C/C(=O)N[C@@H](c1ccsc1)[C@@H](O)C(=O)O[C@H]1C[C@@]2(O)[C@@H](OC(=O)c3ccccc3)C3[C@](C)(C(=O)[C@H](O)C(=C1C)C2(C)C)[C@@H](OC(=O)OCC)C[C@H]1OC[C@@]31OC(C)=O` (stereo partly shown) [Compound 4999], the IC50 is less than 1 nM.

Staying with this assay, now noted: HCT116 colony formation; 72 h drug incubation, colonies counted after 7 days; Example 5, C-7 ester/C-10 hydroxy taxanes; read-out: IN VITRO ID 50 (nm) HCT116.
Consider `CCCC(=O)O[C@H]1C[C@H]2OC[C@@]2(OC(C)=O)C2[C@H](OC(=O)c3ccccc3)[C@]3(O)C[C@H](OC(=O)[C@H](O)[C@@H](NC(=O)OCC(C)C)c4ccoc4)C(C)=C([C@@H](O)C(=O)[C@@]21C)C3(C)C` (stereo partly shown) [Compound 4828], for which the IC50 is less than 10 nM.

Take `C/C=C/C(=O)N[C@@H](c1ccoc1)[C@@H](O)C(=O)O[C@H]1C[C@@]2(O)[C@@H](OC(=O)c3ccccc3)C3[C@](C)(C(=O)[C@H](O)C(=C1C)C2(C)C)[C@@H](OC(=O)CC)C[C@H]1OC[C@@]31OC(C)=O` (stereo partly shown) [Compound 4898]: the IC50 is less than 1 nM.

Take `C/C=C/C(=O)N[C@@H](c1ccoc1)[C@@H](O)C(=O)O[C@H]1C[C@@]2(O)[C@@H](OC(=O)c3ccccc3)C3[C@](C)(C(=O)[C@H](O)C(=C1C)C2(C)C)[C@@H](OC(=O)CCC)C[C@H]1OC[C@@]31OC(C)=O` (stereo partly shown) [Compound 4939]: the IC50 is less than 1 nM.

For the compound `C/C=C/C(=O)N[C@@H](c1ccsc1)[C@@H](O)C(=O)O[C@H]1C[C@@]2(O)[C@@H](OC(=O)c3ccccc3)C3[C@](C)(C(=O)[C@H](O)C(=C1C)C2(C)C)[C@@H](OC(=O)CC)C[C@H]1OC[C@@]31OC(C)=O` (stereo partly shown) [Compound 5020], the IC50 is less than 1 nM.

For the compound `C/C=C/C(=O)N[C@@H](c1ccsc1)[C@@H](O)C(=O)O[C@H]1C[C@@]2(O)[C@@H](OC(=O)c3ccccc3)C3[C@](C)(C(=O)[C@H](O)C(=C1C)C2(C)C)[C@@H](OC(=O)CCC)C[C@H]1OC[C@@]31OC(C)=O` (stereo partly shown) [Compound 5030], the IC50 was less than 1 nM.

In the case of `CCC(=O)O[C@H]1C[C@H]2OC[C@@]2(OC(C)=O)C2[C@H](OC(=O)c3ccccc3)[C@]3(O)C[C@H](OC(=O)[C@H](O)[C@@H](NC(=O)OC(C)(C)C)C4CC4)C(C)=C([C@@H](O)C(=O)[C@@]21C)C3(C)C` (stereo partly shown) [Compound 5070], the IC50 is less than 10 nM.

Still in this assay, the particulars now being: HCT116 colony formation; 72 h drug incubation, colonies counted after 7 days; Example 10, C-10 ester/C-7 hydroxy taxanes; read-out: IN VITRO ID 50 (nm) HCT116.
For the compound `CCC(=O)O[C@H]1C(=O)[C@@]2(C)C([C@H](OC(=O)c3ccccc3)[C@]3(O)C[C@H](OC(=O)[C@H](O)[C@@H](NC(=O)OCC(C)C)C4CC4)C(C)=C1C3(C)C)[C@]1(OC(C)=O)CO[C@@H]1C[C@@H]2O` (stereo partly shown) [Compound 4799], the IC50 is less than 1 nM.

With `CCCC(=O)O[C@H]1C(=O)[C@@]2(C)C([C@H](OC(=O)c3ccccc3)[C@]3(O)C[C@H](OC(=O)[C@H](O)[C@@H](NC(=O)OCC(C)C)C4CC4)C(C)=C1C3(C)C)[C@]1(OC(C)=O)CO[C@@H]1C[C@@H]2O` (stereo partly shown) [Compound 4808], the IC50 was less than 10 nM.

With `CCCC(=O)O[C@H]1C(=O)[C@@]2(C)C([C@H](OC(=O)c3ccccc3)[C@]3(O)C[C@H](OC(=O)[C@H](O)[C@@H](NC(=O)OCC(C)C)c4ccsc4)C(C)=C1C3(C)C)[C@]1(OC(C)=O)CO[C@@H]1C[C@@H]2O` (stereo partly shown) [Compound 4834], the IC50 was less than 10 nM.

`C/C=C/C(=O)N[C@@H](c1ccoc1)[C@@H](O)C(=O)O[C@H]1C[C@@]2(O)[C@@H](OC(=O)c3ccccc3)C3[C@](C)(C(=O)[C@H](OC(=O)CC)C(=C1C)C2(C)C)[C@@H](O)C[C@H]1OC[C@@]31OC(C)=O` (stereo partly shown) [Compound 4888]: the IC50 is less than 1 nM.

Take `C/C=C/C(=O)N[C@@H](c1ccoc1)[C@@H](O)C(=O)O[C@H]1C[C@@]2(O)[C@@H](OC(=O)c3ccccc3)C3[C@](C)(C(=O)[C@H](OC(=O)CCC)C(=C1C)C2(C)C)[C@@H](O)C[C@H]1OC[C@@]31OC(C)=O` (stereo partly shown) [Compound 4919]: the IC50 was less than 1 nM.

For the compound `C/C=C/C(=O)N[C@@H](c1ccoc1)[C@@H](O)C(=O)O[C@H]1C[C@@]2(O)[C@@H](OC(=O)c3ccccc3)C3[C@](C)(C(=O)[C@H](OC(=O)C4CC4)C(=C1C)C2(C)C)[C@@H](O)C[C@H]1OC[C@@]31OC(C)=O` (stereo partly shown) [Compound 4944], the IC50 was less than 1 nM.

`CC(=O)O[C@@]12CO[C@@H]1C[C@H](O)[C@@]1(C)C(=O)[C@H](OC(=O)C3CC3)C3=C(C)[C@@H](OC(=O)[C@H](O)[C@@H](NC(=O)OCC(C)C)c4ccsc4)C[C@@](O)([C@@H](OC(=O)c4ccccc4)C12)C3(C)C` (stereo partly shown) [Compound 5011]: the IC50 is less than 10 nM.

For the compound `C/C=C/C(=O)N[C@@H](c1ccsc1)[C@@H](O)C(=O)O[C@H]1C[C@@]2(O)[C@@H](OC(=O)c3ccccc3)C3[C@](C)(C(=O)[C@H](OC(=O)C4CC4)C(=C1C)C2(C)C)[C@@H](O)C[C@H]1OC[C@@]31OC(C)=O` (stereo partly shown) [Compound 5040], the IC50 was less than 1 nM.

As for `CCC(=O)O[C@H]1C(=O)[C@@]2(C)C([C@H](OC(=O)c3ccccc3)[C@]3(O)C[C@H](OC(=O)[C@H](O)[C@H](C=C(C)C)NC(=O)OCC(C)C)C(C)=C1C3(C)C)[C@]1(OC(C)=O)CO[C@@H]1C[C@@H]2O` (stereo partly shown) [Compound 5065], the IC50 is less than 10 nM.
